Test system: patients with postpartum depression (PPD)
Assay: Clinical trial of inhaled 5-MeO-DMT in postpartum depression (MADRS, BPRS, BIMF, PES, safety)
Experimental: The single-arm, open-label clinical trial will involve 15 adult female patients with clinically diagnosed postpartum depression (PPD).
The second dose (12 mg) will only be administered if: • a. […] The 6 mg dose was safe and well-tolerated according to the investigator, • c. Any psychoactive effects (PsE) of the prior dose have subsided, and • d. Pre-dose vital parameters and forced expiratory volume in one second (FEV1) are in normal range, or if outside of the normal range, are not clinically significant according to the investigator. • 3. Similarly, a third dose (18 mg) will only be administered if: • a. […] The 12 mg dose was safe and well-tolerated according to the investigator, and • c. Any PsE of the prior dose have subsided, and • d. Pre-dose vital parameters and forced expiratory volume in one second (FEV1) are in normal range, or if outside of the normal range, are not clinically significant according to the investigator.
The patients will be assessed for a peak psychedelic experience (based on a patient-scored visual analogue scale, the PE scale), sedation, and other endpoints after dosing. Follow-up visits are planned for Day 1, and Day 7 after the dosing day.
The following criteria must be met by all patients considered for clinical trial participation: • 1. Is female and in the age range between 18 and 45 years (inclusive) at screening. • 2. Has a body mass index (BMI) in the range of 18.5 and 35 kg/m^2 (inclusive) at screening. • 3. Meets the trial criteria for PPD as assessed by a trial psychiatrist or registered psychologist: • a. Diagnosis of Major Depressive Disorder without psychotic features, confirmed by the Mini-International Neuropsychiatric Interview (MINI), with peri-partum onset that began no earlier than gestation and no later than the first 4 weeks postpartum. • b. Has a Montgomery-Åsberg Depression Rating Scale (MADRS) total score of equal to or greater than 28 at screening and pre-dose on Day 0. • 6. […] Patients must have a negative pregnancy test at screening and on the pre-test day (Day −1). • 5. Is willing to delay start of other antidepressant or anxiety medication until after the end of the trial at Day 7 and agrees to keep any psychotherapy unchanged during the trial.
A potential patient who meets any of the following key exclusion criteria will be excluded from participation in this trial: • 1. Has, based on history, psychiatric assessment, and evaluation of the MINI, a current or prior diagnosis of bipolar disorder, a manic or hypomanic episode, a psychotic disorder, Major Depressive Disorder (MDD) or other mood disorder with psychotic features, obsessive compulsive disorder, post-traumatic stress disorder (PTSD), autism spectrum disorder, borderline personality disorder, schizophrenia, delusional disorder, paranoid personality disorder, schizoaffective disorder, clinically significant intellectual disability, or any other psychiatric comorbidity that renders the patient unsuitable for the trial according to the investigator's judgment. • 2. Has one or more first or second degree relatives with a current or previously diagnosed bipolar disorder, psychotic disorder or other mood disorder (including MDD) with psychotic features. • 3. Is in the judgement of a trial psychiatrist or registered psychologist, at significant risk for suicide based on history, psychiatric assessment, and evaluation of suicidal ideation and suicidal behaviour based on the Columbia-Suicide Severity Rating Scale (C-SSRS). • 4. Has taken anti-depressive medication within 14 days or 5 half-lives (whichever is longer) prior to dosing (exception: within the last 5 weeks in the case of fluoxetine). • 5.

[1] = PPD n=1, IDR 6+12 mg inhaled, day 1, baseline 5
[2] = PPD n=1, IDR 6+12 mg inhaled, day 1, baseline 6
[3] = PPD n=1, IDR 6+12 mg inhaled, day 1, baseline 7
[4] = PPD n=1, IDR 6+12 mg inhaled, day 7, baseline 0
[5] = PPD n=1, IDR 6+12 mg inhaled, day 7, baseline 1
[6] = PPD n=1, IDR 6+12 mg inhaled, day 7, baseline 2
[7] = PPD n=1, IDR 6+12 mg inhaled, day 7, baseline 3
[8] = PPD n=1, IDR 6+12 mg inhaled, day 7, baseline 4
[9] = PPD n=1, IDR 6+12 mg inhaled, day 7, baseline 5
[10] = PPD n=1, IDR 6+12 mg inhaled, day 7, baseline 6
[11] = PPD n=1, IDR 6+12 mg inhaled, day 7, baseline 7
[12] = PPD n=1, IDR 6+12 mg inhaled, discharge, baseline 1
[13] = PPD n=1, IDR 6+12 mg inhaled, discharge, baseline 2
[14] = PPD n=1, IDR 6+12 mg inhaled, discharge, baseline 5
[15] = PPD n=1, IDR 6+12 mg inhaled, discharge, baseline 6
[16] = PPD n=1, IDR 6+12 mg inhaled, discharge, baseline 7

Structure (SMILES): COc1ccc2[nH]cc(CCN(C)C)c2c1 [5-MeO-DMT]
- MADRS Reduced Sleep improvement [1]: 5
- MADRS Reduced Sleep score [1]: 0
- BPRS Depressive Mood improvement [2]: 5
- BPRS Depressive Mood score [2]: 1
- BPRS Guilt Feelings score [2]: 1
- BPRS Guilt feelings improvement [2]: 5
- BPRS Somatic Concern improvement [2]: 5
- BPRS Somatic Concern score [2]: 1
- BPRS Tension improvement [2]: 5
- BPRS Tension score [2]: 1
- BPRS Anxiety improvement [3]: 6
- BPRS Anxiety score [3]: 1
- MADRS Concentration Difficulties improvement [4]: 0
- MADRS Concentration Difficulties score [4]: 0
- MADRS Reduced appetite improvement [4]: 0
- MADRS Reduced appetite score [4]: 0
- MADRS Suicidal Thoughts improvement [4]: 0
- MADRS Suicidal Thoughts score [4]: 0
- BPRS Blunted Affect score [5]: 1
- BPRS Blunted affect improvement [5]: 0
- BPRS Conceptual disorganization improvement [5]: 0
- BPRS Conceptual disorganization score [5]: 1
- BPRS Disorientation improvement [5]: 0
- BPRS Disorientation score [5]: 1
- BPRS Grandiosity improvement [5]: 0
- BPRS Grandiosity score [5]: 1
- BPRS Hallucinatory behaviour improvement [5]: 0
- BPRS Hallucinatory behaviour score [5]: 1
- BPRS Hostility improvement [5]: 0
- BPRS Hostility score [5]: 1
- BPRS Mannerisms and Posturing improvement [5]: 0
- BPRS Mannerisms and Posturing score [5]: 1
- BPRS Motor retardation improvement [5]: 0
- BPRS Motor retardation score [5]: 1
- BPRS Suspiciousness improvement [5]: 0
- BPRS Suspiciousness score [5]: 1
- BPRS Uncooperativeness improvement [5]: 0
- BPRS Uncooperativeness score [5]: 1
- BPRS Unusual Thought Content improvement [5]: 0
- BPRS Unusual Thought Content score [5]: 1
- BPRS Excitement improvement [6]: 1
- BPRS Excitement score [6]: 1
- MADRS Inability to Feel improvement [7]: 3
- MADRS Inability to Feel score [7]: 0
- MADRS Lassitude improvement [7]: 3
- MADRS Lassitude score [7]: 0
- MADRS Pessimistic Thoughts improvement [8]: 4
- MADRS Pessimistic Thoughts score [8]: 0
- MADRS Reported sadness improvement [8]: 4
- MADRS Reported sadness score [8]: 0
- BPRS Emotional Withdrawal score [9]: 1
- BPRS Emotional withdrawal improvement [9]: 4
- MADRS Apparent sadness improvement [9]: 5
- MADRS Apparent sadness score [9]: 0
- MADRS Inner Tension improvement [9]: 4
- MADRS Inner Tension score [9]: 1
- MADRS Reduced Sleep improvement [9]: 5
- MADRS Reduced Sleep score [9]: 0
- BPRS Depressive Mood improvement [10]: 5
- BPRS Depressive Mood score [10]: 1
- BPRS Guilt Feelings score [10]: 1
- BPRS Guilt feelings improvement [10]: 5
- BPRS Somatic Concern improvement [10]: 5
- BPRS Somatic Concern score [10]: 1
- BPRS Tension improvement [10]: 5
- BPRS Tension score [10]: 1
- BPRS Anxiety improvement [11]: 6
- BPRS Anxiety score [11]: 1
- BPRS Blunted Affect score [12]: 1
- BPRS Blunted affect improvement [12]: 0
- BPRS Conceptual disorganization improvement [12]: 0
- BPRS Conceptual disorganization score [12]: 1
- BPRS Disorientation improvement [12]: 0
- BPRS Disorientation score [12]: 1
- BPRS Grandiosity improvement [12]: 0
- BPRS Grandiosity score [12]: 1
- BPRS Hallucinatory behaviour improvement [12]: 0
- BPRS Hallucinatory behaviour score [12]: 1
- BPRS Hostility improvement [12]: 0
- BPRS Hostility score [12]: 1
- BPRS Mannerisms and Posturing improvement [12]: 0
- BPRS Mannerisms and Posturing score [12]: 1
- BPRS Motor retardation improvement [12]: 0
- BPRS Motor retardation score [12]: 1
- BPRS Suspiciousness improvement [12]: 0
- BPRS Suspiciousness score [12]: 1
- BPRS Uncooperativeness improvement [12]: 0
- BPRS Uncooperativeness score [12]: 1
- BPRS Unusual Thought Content improvement [12]: 0
- BPRS Unusual Thought Content score [12]: 1
- BPRS Excitement improvement [13]: 1
- BPRS Excitement score [13]: 1
- BPRS Emotional Withdrawal score [14]: 1
- BPRS Emotional withdrawal improvement [14]: 4
- BPRS Depressive Mood improvement [15]: 5
- BPRS Depressive Mood score [15]: 1
- BPRS Guilt Feelings score [15]: 1
- BPRS Guilt feelings improvement [15]: 5
- BPRS Somatic Concern improvement [15]: 5
- BPRS Somatic Concern score [15]: 1
- BPRS Tension score [15]: 1
- BPRS Anxiety improvement [16]: 6
- BPRS Anxiety score [16]: 1
- ECG, safety laboratory analyses and CADSS assessments (PPD n=1, ECG 3 hours, laboratory 7 days, CADSS 3 hours, 1 day and 7 days): unremarkable
